According to patent US8158622B2, “Pyrrolopyridine-2-carboxylic acid amide inhibitors of glycogen phosphorylase” (Prosidion Limited, priority 2003, dated 2012):

Biological target: T1, Rabbit muscle glycogen phosphorylase a (Oryctolagus cuniculus, UniProt P00489)
T1 construct: purchased Sigma P1261
T1 sequence (P00489 2-843 limits assumed): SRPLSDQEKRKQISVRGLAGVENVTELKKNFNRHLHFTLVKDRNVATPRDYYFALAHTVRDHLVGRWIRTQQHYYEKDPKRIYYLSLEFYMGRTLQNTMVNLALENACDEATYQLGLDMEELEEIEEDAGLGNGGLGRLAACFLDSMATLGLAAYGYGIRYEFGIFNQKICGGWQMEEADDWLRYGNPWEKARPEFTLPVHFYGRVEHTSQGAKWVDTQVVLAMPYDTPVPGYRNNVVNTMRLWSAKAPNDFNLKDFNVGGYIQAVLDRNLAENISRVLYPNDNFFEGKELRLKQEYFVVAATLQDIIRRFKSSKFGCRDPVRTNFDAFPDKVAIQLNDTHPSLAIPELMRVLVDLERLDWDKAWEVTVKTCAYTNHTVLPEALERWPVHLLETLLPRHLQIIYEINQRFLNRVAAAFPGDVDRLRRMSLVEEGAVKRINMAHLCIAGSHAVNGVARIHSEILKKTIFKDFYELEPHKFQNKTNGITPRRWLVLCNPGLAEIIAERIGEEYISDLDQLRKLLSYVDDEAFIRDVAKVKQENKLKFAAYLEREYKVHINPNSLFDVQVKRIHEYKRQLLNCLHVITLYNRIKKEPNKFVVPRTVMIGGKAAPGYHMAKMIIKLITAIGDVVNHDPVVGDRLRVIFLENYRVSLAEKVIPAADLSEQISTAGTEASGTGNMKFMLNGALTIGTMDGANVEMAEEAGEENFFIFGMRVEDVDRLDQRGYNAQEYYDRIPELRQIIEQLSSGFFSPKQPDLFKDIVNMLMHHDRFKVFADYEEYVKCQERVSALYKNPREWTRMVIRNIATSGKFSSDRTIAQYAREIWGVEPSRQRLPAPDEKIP
Experiment: Glycogen phosphorylase assay in vitro (reverse direction, malachite green phosphate detection)
Assay type: biochemical
Details: 50 mM Hepes pH 7.2, 7.5 mM glucose, 0.5 mM glucose-1-phosphate, 1 mg/mL glycogen, 30° C. for 30 min
Source text: α-D-Glucose-1-phosphate (disodium salt), Glycogen, D-Glucose, Malachite Green Hydrochloride, Ammonium Molybdate tetrahydrate, BSA, HEPES and rabbit muscle phosphorylase α (P1261) were purchased from Sigma. All other reagents were analytical grade.
Glycogen Phosphorylase Assay In Vitro:
An assay for glycogen phosphorylase activity in the reverse direction was developed based on the method described by Engers et al., Can. J. Biochem., 1970, 48, 746-754]. Rabbit muscle glycogen phosphorylase a (Sigma) was reconstituted at a stock concentration of 100 μg/mL in 25 mM Tris/HCl. […] in a 96-well plate in a final volume of 100 μL containing 50 mM Hepes pH 7.2, 7.5 mM glucose, 0.5 mM glucose-1-phosphate and 1 mg/mL glycogen. After incubation at 30° C. for 30 min, the inorganic phosphate released from glucose-1-phosphate was measured by the addition of 150 μL of malachite green/molybdate solution prepared as follows: 5 mL of 4.2% ammonium molybdate in 4N HCl, 15 mL of 0.045% malachite green, 50 μL of Tween 20. Following a 30 min incubation at rt, the absorbance was measured at 620 nm. For IC50 determination, 10 μL of a serial dilution of compound (100 μM to 0.004 μM) in DMSO was added to each reaction in duplicate with the equivalent concentration of DMSO added to the control uninhibited reaction. Dose response curves were then obtained by plotting % inhibition versus log10 compound concentration. IC50 is defined as the concentration of compound achieving 50% inhibition under the assay conditions described.

Structure (SMILES) | IC50 [µM]
O=C(NCCNc1ccccc1)c1cc2ncccc2[nH]1 [Example 26, 1H-Pyrrolo[3,2-b]pyridine-2-carboxylic acid (2-phenylaminoethyl)amide] | ≥ 100
O=C(NCCN1CCN(Cc2ccccc2)CC1)c1cc2cc(Cl)ncc2[nH]1 [Example 28, 5-Chloro-1H-pyrrolo[2,3-c]pyridine-2-carboxylic acid [2-(4-benzylpiperazin-1-yl)ethyl]amide] | ≥ 100
O=C(NCCNCc1ccccc1)c1cc2cc(Cl)ncc2[nH]1 [Example 29, 5-Chloro-1H-pyrrolo[2,3-c]pyridine-2-carboxylic acid (2-benzylaminoethyl)amide] | ≥ 100

More lines, now with the values ahead:

IC50 [µM] | Structure (SMILES)
≥ 100 | O=C(NCCNc1ccccc1)c1cc2ccncc2[nH]1 [Example 21, 1H-Pyrrolo[2,3-c]pyridine-2-carboxylic acid (2-phenylaminoethyl)amide]
≥ 100 | COc1ccc2[nH]c(C(=O)N[C@@H](Cc3ccccc3)C(=O)N(C)C)cc2n1 [Example 23, 5-Methoxy-1H-pyrrolo[3,2-b]pyridine-2-carboxylic acid (1-dimethylcarbamoyl-2-(S)-phenylethyl)amide]
≥ 100 | CN(C)C(=O)[C@H](Cc1ccccc1)NC(=O)c1cc2ncccc2[nH]1 [Example 24, 1H-Pyrrolo[3,2-b]pyridine-2-carboxylic acid (1-dimethylcarbamoyl-2-(S)-phenylethyl)amide]
≥ 100 | O=C(NCCOc1ccccc1)c1cc2ncccc2[nH]1 [Example 25, 1H-Pyrrolo[3,2-b]pyridine-2-carboxylic acid (2-phenoxyethyl)amide]
